ChEMBL document CHEMBL1201862, “PubChem BioAssay data set” (2004)
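Assay format: 96-well plates, 48-hour exposure. GI50: concentration for 50% inhibition of growth.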 Calls of active or inactive are those of the source. No stated cut-off is given here; in the data, active = GI50 up to about 1.1 µM and inactive = higher.

Legend:
Test in all cases: NCI-60 cell line screen, 48 h
MDA-N = test system: MDA-N
RXF 393 = test system: RXF 393
NCI-H522 = test system: NCI-H522
LOX IMVI = test system: LOX IMVI
NCI-H23 = test system: NCI-H23
SK-OV-3 = test system: SK-OV-3
SR = test system: SR
RPMI-8226 = test system: RPMI-8226
HOP-62 = test system: HOP-62
A498 = test system: A498
SNB-75 = test system: SNB-75
T47D = test system: T47D
HCT-15 = test system: HCT-15
SN12C = test system: SN12C
COLO 205 = test system: COLO 205
IGROV-1 = test system: IGROV-1
TK-10 = test system: TK-10
NCI-H460 = test system: NCI-H460
UO-31 = test system: UO-31
MCF7 = test system: MCF7

Measured: GI50

COc1ccc2oc(=O)c(-c3nc4ccccc4o3)cc2c1
59 µM: HCT-15
inactive: MDA-N 29.1 µM | RXF 393 53.3 µM | NCI-H522 50.2 µM | LOX IMVI > 100 µM | NCI-H23 > 100 µM | SK-OV-3 > 100 µM | SR 5.25 µM | RPMI-8226 98.2 µM | HOP-62 64.9 µM | A498 67.9 µM | SNB-75 55.1 µM | T47D 58.2 µM | SN12C > 100 µM | COLO 205 81.7 µM | IGROV-1 > 100 µM | TK-10 > 100 µM | NCI-H460 74 µM | UO-31 > 100 µM | MCF7 32.7 µM

NC(=O)NNc1nc2ccccc2c(=O)n1NC(=O)C(=O)Nc1ccc(Cl)cc1Cl
inactive: MDA-N > 100 µM | RXF 393 > 100 µM | NCI-H522 > 100 µM | LOX IMVI > 100 µM | NCI-H23 > 100 µM | SK-OV-3 > 100 µM | SR 65.2 µM | RPMI-8226 > 100 µM | HOP-62 > 100 µM | A498 > 100 µM | SNB-75 > 100 µM | T47D > 100 µM | SN12C > 100 µM | IGROV-1 64 µM | TK-10 > 100 µM | NCI-H460 > 100 µM | UO-31 > 100 µM | MCF7 > 100 µM
> 100 µM: HCT-15

O=C(CC(C(=O)c1ccco1)c1ccsc1)c1ccco1 (stereo not drawn)
inactive: MDA-N > 100 µM | RXF 393 48.9 µM | NCI-H522 76.9 µM | LOX IMVI > 100 µM | NCI-H23 > 100 µM | SK-OV-3 > 100 µM | SR 67.8 µM | RPMI-8226 > 100 µM | HOP-62 > 100 µM | A498 > 100 µM | SNB-75 47 µM | T47D 17.3 µM | SN12C > 100 µM | COLO 205 > 100 µM | IGROV-1 > 100 µM | TK-10 > 100 µM | NCI-H460 71.1 µM | UO-31 58.9 µM | MCF7 > 100 µM
> 100 µM: HCT-15

CC1(C)CCCCCCCCCC2CC2CCC(C)(C)C1=O (stereo not drawn)
inactive: MDA-N 30.9 µM | RXF 393 15.4 µM | NCI-H522 15.6 µM | LOX IMVI 19 µM | NCI-H23 40.5 µM | SK-OV-3 34 µM | SR 6.59 µM | RPMI-8226 24 µM | HOP-62 21.8 µM | A498 37.4 µM | SNB-75 28.6 µM | T47D 18.9 µM | SN12C 18.4 µM | COLO 205 18.5 µM | IGROV-1 41.3 µM | TK-10 22.9 µM | NCI-H460 21.1 µM | UO-31 19.6 µM | MCF7 16.4 µM
16.5 µM: HCT-15

CC1CC(=O)N(N(C)C)C2(C#N)C(=O)N=C(N)C12C#N (stereo not drawn)
> 100 µM: HCT-15
inactive: MDA-N > 100 µM | RXF 393 > 100 µM | NCI-H522 32.4 µM | LOX IMVI > 100 µM | NCI-H23 > 100 µM | SK-OV-3 > 100 µM | SR > 100 µM | RPMI-8226 35.4 µM | HOP-62 > 100 µM | A498 > 100 µM | SNB-75 > 100 µM | T47D > 100 µM | SN12C > 100 µM | COLO 205 38.7 µM | IGROV-1 > 100 µM | TK-10 > 100 µM | UO-31 > 100 µM | MCF7 > 100 µM

Cn1c(S)nc(C(N)=O)c1N
> 100 µM: HCT-15
inactive: MDA-N > 100 µM | RXF 393 > 100 µM | NCI-H522 > 100 µM | LOX IMVI > 100 µM | NCI-H23 > 100 µM | SK-OV-3 > 100 µM | SR > 100 µM | RPMI-8226 > 100 µM | HOP-62 > 100 µM | A498 > 100 µM | SNB-75 > 100 µM | T47D 72.4 µM | SN12C > 100 µM | COLO 205 > 100 µM | IGROV-1 > 100 µM | TK-10 > 100 µM | NCI-H460 > 100 µM | UO-31 > 100 µM | MCF7 > 100 µM

Cc1[nH]c(=O)nc(N/N=C/c2ccc(Cl)cc2)c1C(=O)Nc1ccc(Cl)cc1
inactive: MDA-N 31.6 µM | RXF 393 23 µM | NCI-H522 27.3 µM | LOX IMVI 14.9 µM | NCI-H23 30.7 µM | SK-OV-3 12.2 µM | SR 44.3 µM | RPMI-8226 22.1 µM | HOP-62 10.6 µM | A498 32.6 µM | SNB-75 6.05 µM | T47D 13.7 µM | SN12C 35.6 µM | COLO 205 25.6 µM | IGROV-1 > 86.3 µM | TK-10 27.6 µM | NCI-H460 10.4 µM | UO-31 > 100 µM | MCF7 > 65.5 µM
38.5 µM: HCT-15
